Assay results taken from patent US12139477B2, “Compounds, salts thereof and methods for treatment of diseases” (ACADIA PHARMACEUTICALS INC., priority 2017, dated 2024).

Tests used:
hERG channel = molecular target: T1, hERG channel (Homo sapiens, UniProt Q12809); experiment: hERG assay, whole cell recordings in CHO cells (AVIVA); assay type: cell-based; details: CHO cells stably expressing hERG, pH 7.4
T1 construct: host or cells: CHO cells, stably transfected
Description: The most common mechanism for these adverse events is the inhibition of one or more cardiac potassium channels, in particular hERG. This current is important for cardiac myocyte repolarization and is a common target for drugs that prolong the QT interval. Test articles in this study were therefore characterized to determine their ability to inhibit the hERG channel. Ion channel activity was measured at AVIVA Biosciences Corporation (San Diego, CA), using a stably transfected Chinese Hamster Ovary (CHO) cell line expressing the hERG mRNA.
Cells: AVIVA's CHO cell line, which stably expresses hERG channels, was used for the study. Cells were cultured in DMEM/F12 containing 10% FBS, 1% penicillin/streptomycin and 500 μg/ml G418. Before testing, cells were harvested using Accumax (Innovative Cell Technologies).
Solutions: For electrophysiological recordings, the following solutions were used: External Solution: 2 mM CaCl2); 2 mM MgCl2; 4 mM KCl; 150 mM NaCl; 10 mM Glucose; 10 mM HEPES; 305-315 mOsm; pH 7.4 (adjusted with 5M NaOH); Internal Solution: 140 mM KCl; 10 mM MgCl2; 6 mM EGTA; 5 mM HEPES-Na; 5 mM ATP-Mg; 295-305 mOsm; pH 7.25 (adjusted with 1M KOH).
Electrophysiology: Whole cell recordings were performed using PX 7000A (Axon Instruments) with AVIVA's SealChip™ technology. Cells were voltage clamped at a holding potential of −80 mV. The hERG current was then activated by a depolarizing step to −50 mV for 300 ms. This first step at −50 mV was used as a baseline for measuring peak amplitude of the tail current. Next, a voltage step to +20 mV was applied for 5 s to activate the channels. Finally, a step back to −50 mV for 5 s removed activation and the deactivating tail current was recorded.
Test Article Handling and Dilutions: All test articles were prepared from 10 mM DMSO stock solutions provided by Sponsor. Solutions were mixed by sonication for 20 min, followed by vigorous vortexing. Prior to testing, compounds were diluted to test concentrations in glass vials using External Solution. Dilutions were prepared no longer than 20 min prior to use.
Electrophysiology Procedures: After achieving whole cell configuration, cells were monitored for 90 s to assess stability and then washed with External Solution for 66 s. The voltage protocol previously described was then applied to the cells every 12 s throughout the procedure. Only stable cells with recording parameters above threshold (see Quality Control section) were allowed to enter the drug addition procedure. External solution containing 0.1% DMSO (vehicle) was applied to the cells to establish a baseline. […] Test article solutions were added to cells in 4 separate additions. Cells were kept in test solution until effect of the test article reached steady state, to a maximum of 12 min. Next, 1 μM cisapride (positive control) was added. Finally, washout with External Solution was performed until the recovery current reached steady state.
Data Analysis: Data analysis was performed using DataXpress (Axon Instruments), Clampfit (Axon Instruments) and Origin (OriginLab Corporation) software.

5HT2A = 5HT2A (Homo sapiens, UniProt P28223); experiment: Receptor Selection and Amplification (R-SAT) functional assay; assay type: cell-based; design: expressed in transfected cells; host or cells: NIH3T3 cells, pSI mammalian expression vector; details: NIH3T3 cells; Ki from IC50 by Cheng and Prussoff; read-out: 5-HT2a (pKi) (R-SAT) (converted)
Description: Receptor Selection and Amplification (R-SAT) Assays. […] The IC50 determined in the RSAT assay was converted into a Ki value using the method of Cheng and Prussoff, Biochem Pharmacol., 1973 Dec. 1; 22(23):3099-108. pKi is the negative of the log(Ki).

T1 sequence (Q12809 whole entry): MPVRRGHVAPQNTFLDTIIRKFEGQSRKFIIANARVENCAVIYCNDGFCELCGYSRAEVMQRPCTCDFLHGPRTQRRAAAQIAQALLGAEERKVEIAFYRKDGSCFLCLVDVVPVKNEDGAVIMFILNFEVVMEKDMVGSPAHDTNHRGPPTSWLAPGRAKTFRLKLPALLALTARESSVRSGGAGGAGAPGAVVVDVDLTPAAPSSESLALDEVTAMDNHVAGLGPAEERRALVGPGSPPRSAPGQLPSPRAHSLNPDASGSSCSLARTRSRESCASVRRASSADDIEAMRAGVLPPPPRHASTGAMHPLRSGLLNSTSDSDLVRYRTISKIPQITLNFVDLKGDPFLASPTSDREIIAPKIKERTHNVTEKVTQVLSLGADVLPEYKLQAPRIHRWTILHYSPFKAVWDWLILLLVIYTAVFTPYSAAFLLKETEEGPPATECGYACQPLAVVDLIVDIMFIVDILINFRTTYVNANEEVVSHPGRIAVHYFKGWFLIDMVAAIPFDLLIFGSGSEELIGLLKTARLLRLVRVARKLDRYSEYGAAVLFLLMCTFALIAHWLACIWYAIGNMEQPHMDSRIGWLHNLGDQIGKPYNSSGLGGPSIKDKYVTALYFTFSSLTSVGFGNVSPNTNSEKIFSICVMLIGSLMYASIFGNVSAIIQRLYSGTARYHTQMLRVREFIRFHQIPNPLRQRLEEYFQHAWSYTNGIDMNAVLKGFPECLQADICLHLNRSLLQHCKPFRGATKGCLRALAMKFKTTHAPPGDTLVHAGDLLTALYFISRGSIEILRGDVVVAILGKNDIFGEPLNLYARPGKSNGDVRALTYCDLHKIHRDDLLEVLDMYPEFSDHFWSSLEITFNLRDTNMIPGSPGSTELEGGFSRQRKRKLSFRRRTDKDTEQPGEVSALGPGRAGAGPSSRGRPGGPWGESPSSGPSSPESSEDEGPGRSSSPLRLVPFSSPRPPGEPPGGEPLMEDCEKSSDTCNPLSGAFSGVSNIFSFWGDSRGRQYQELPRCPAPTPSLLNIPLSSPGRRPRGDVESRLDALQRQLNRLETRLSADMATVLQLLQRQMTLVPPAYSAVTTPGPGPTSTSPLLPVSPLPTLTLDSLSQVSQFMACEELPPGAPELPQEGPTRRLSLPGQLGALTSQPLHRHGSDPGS
Chain of 5HT2A (P28223 whole entry): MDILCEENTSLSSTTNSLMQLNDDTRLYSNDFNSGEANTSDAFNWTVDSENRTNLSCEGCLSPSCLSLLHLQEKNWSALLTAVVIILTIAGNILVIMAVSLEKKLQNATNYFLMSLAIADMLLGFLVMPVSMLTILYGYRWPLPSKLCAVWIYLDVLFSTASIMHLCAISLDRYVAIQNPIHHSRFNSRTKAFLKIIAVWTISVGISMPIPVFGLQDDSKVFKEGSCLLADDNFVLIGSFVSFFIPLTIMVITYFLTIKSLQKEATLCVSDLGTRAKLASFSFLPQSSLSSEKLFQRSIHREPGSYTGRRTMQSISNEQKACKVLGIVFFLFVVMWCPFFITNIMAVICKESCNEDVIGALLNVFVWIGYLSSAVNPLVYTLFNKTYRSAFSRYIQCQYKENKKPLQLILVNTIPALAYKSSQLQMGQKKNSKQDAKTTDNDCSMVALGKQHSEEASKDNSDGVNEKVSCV

Ki (5HT2A) | SMILES | inhibition at 1 µM (hERG channel)
50.1 nM | CN1CCC(N(Cc2ccc(F)cc2F)C(=O)NCc2ccc3c(c2)COC3)CC1 [Example 95, 1-[(2,4-difluorophenyl)methyl]-3-[(1,3-dihydro-2-benzofuran-5-yl)methyl]-1-(1-methylpiperidin-4-yl)urea; Trifluoroacetic Acid] | 8%
3.16 nM | COc1cc(CNC(=O)N(Cc2ccc(F)cc2F)C2CCN(C)CC2)ccc1Cl [Example 98, 3-[(4-chloro-3-methoxyphenyl)methyl]-1-[(2,4-difluorophenyl)methyl]-1-(1-methylpiperidin-4-yl)urea; Trifluoroacetic Acid] | 62%
126 nM | CC(C)COc1ccc(CNC(=O)N(Cc2ccc(Cl)cc2Cl)C2CCN(C)CC2)cc1 [Example 107, 1-[(2,4-dichlorophenyl)methyl]-1-(1-methylpiperidin-4-yl)-3-{[4-(2-methylpropoxy)phenyl]methyl}urea] | 43%
0.316 nM | Cc1ccc(CN(C(=O)NCc2ccc(OC(C)C)cc2)C2CCN(C)CC2)c(F)c1 [Example 115, 1-[(2-fluoro-4-methylphenyl)methyl]-1-(1-methylpiperidin-4-yl)-3-{[4-(propan-2-yloxy)phenyl]methyl}urea; Trifluoroacetic Acid] | 49%
3.98 nM | COc1ccc(CNC(=O)N(Cc2ccc(F)cc2F)C2CCN(C)CC2)cc1 [Example 125, 3-[(2,4-difluorophenyl)methyl]-1-[(4-methoxyphenyl)methyl]-3-(1-methylpiperidin-4-yl)urea] | 17%
3.98 nM | CC(C)Oc1ccc(CNC(=O)N(Cc2ccc(Cl)cc2F)C2CCN(C)CC2)cc1 [Example 137, 1-[(4-chloro-2-fluorophenyl)methyl]-1-(1-methylpiperidin-4-yl)-3-{[4-(propan-2-yloxy)phenyl]methyl}urea; Trifluoroacetic Acid] | 37%
3.98 nM | CC(C)COc1ccc(CNC(=O)N(Cc2ccc(Cl)cc2F)C2CCN(C)CC2)cc1 [Example 139, 1-[(4-chloro-2-fluorophenyl)methyl]-1-(1-methylpiperidin-4-yl)-3-{[4-(2-methylpropoxy)phenyl]methyl}urea; Trifluoroacetic Acid] | 35%
0.631 nM | CN1CCC(N(Cc2ccc(F)cc2F)C(=O)NCc2ccc(OCC3CC3)cc2)CC1 [Example 141, 3-{[4-(cyclopropylmethoxy)phenyl]methyl}-1-[(2,4-difluorophenyl)methyl]-1-(1-methylpiperidin-4-yl)urea] | 42%
1 nM | CC(C)Oc1ccc(CNC(=O)N(Cc2ccc(F)cc2F)C2CCNCC2)cc1 [Example 142, 1-[(2,4-difluorophenyl)methyl]-1-(piperidin-4-yl)-3-{[4-(propan-2-yloxy)phenyl]methyl}urea] | 8%
0.501 nM | CC(C)Oc1ccc(CNC(=O)N(Cc2ccc(F)cc2F)C2CCN(C)CC2)cc1F [Example 143, 1-[(2,4-difluorophenyl)methyl]-3-{[3-fluoro-4-(propan-2-yloxy)phenyl]methyl}-1-(1-methylpiperidin-4-yl)urea; Trifluoroacetic Acid] | 41%
1 nM | CC(C)Oc1ccc(CNC(=O)N(Cc2ccc(F)cc2F)C2CCN(C)CC2)c(F)c1 [Example 144, 1-[(2,4-difluorophenyl)methyl]-3-{[2-fluoro-4-(propan-2-yloxy)phenyl]methyl}-1-(1-methylpiperidin-4-yl)urea; Trifluoroacetic Acid] | 37%
1.58 nM | Cc1cc(CNC(=O)N(Cc2ccc(F)cc2F)C2CCN(C)CC2)ccc1OC(C)C [Example 145, 1-[(2,4-difluorophenyl)methyl]-3-{[3-methyl-4-(propan-2-yloxy)phenyl]methyl}-1-(1-methylpiperidin-4-yl)urea; Trifluoroacetic Acid] | 39%
